Numbers after ± are expanded uncertainties.
Conditions: 101 kPa, Liquid

| mass density (293.15 K) | mass density (298.15 K) | mass density (303.15 K) | mass density (308.15 K) | mass density (313.15 K) | mass density (323.15 K) | mass density (333.15 K) | mass density (343.15 K) | Structure (SMILES) |
| --- | --- | --- | --- | --- | --- | --- | --- | --- |
| 1371.57 ± 2.6 kg/m3 | 1367.22 ± 2.6 kg/m3 | 1362.86 ± 2.5 kg/m3 | 1358.56 ± 2.5 kg/m3 | 1354.3 ± 2.5 kg/m3 | 1345.98 ± 2.5 kg/m3 | 1337.7 ± 2.4 kg/m3 | 1330.76 ± 2.4 kg/m3 | CCCCn1cc[n+](C)c1.F[P-](F)(F)(F)(F)F [1-butyl-3-methylimidazolium hexafluorophosphate] |
| 782.3 ± 0.7 kg/m3 | 776.93 ± 0.71 kg/m3 | 771.44 ± 0.73 kg/m3 | 765.97 ± 0.74 kg/m3 | 760.68 ± 0.75 kg/m3 | 749.73 ± 0.78 kg/m3 | 738.19 ± 0.81 kg/m3 | 726.94 ± 0.83 kg/m3 | CC#N [acetonitrile] |
| 1195.71 ± 1.8 kg/m3 | 1192.07 ± 1.8 kg/m3 | 1188.37 ± 1.8 kg/m3 | 1184.72 ± 1.8 kg/m3 | 1181.43 ± 1.7 kg/m3 | 1174.49 ± 1.7 kg/m3 | 1166.89 ± 1.7 kg/m3 | 1159.97 ± 1.6 kg/m3 | CCCCn1cc[n+](C)c1.F[B-](F)(F)F [1-butyl-3-methylimidazolium tetrafluoroborate] |

Source: the NIST ThermoML archive (doi:10.1021/je700266n)
